Reference: patent US11021457B2, “Class of isoindolone-imide ring-1,3-dione-2-ene compounds, composition and use thereof” (WIGEN BIOMEDICINE TECHNOLOGY (SHANGHAI) CO., LTD., priority 2017, dated 2021)

How the values were obtained:
Type in all cases: cell-based
[1] = system: RPMI-8226; assay: Inhibition of tumor cell proliferation, CellTiter-Glo, RPMI-8226; conditions: compound concentration 50 μM, 72 hours; for cell survival rate (% of control) at 50 µM: Homo sapiens, RPMI-8226, read-out: Inhibitory activity against proliferation (cell survival rate) RPMI-8226
Summary of the method: (§1)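 Cells seeded at 2000-10000 per well, treated immediately (suspension) or after adherence (adherent) and cultured at 37° C, 5% CO2. Viability read by CellTiter-Glo at 72 h as blank-corrected survival rate vs control. Scored at 50 μM compound: survival 60-<90% +, >30-60% ++, ≤30% +++.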

[2] = system: SU-DHL6; assay: Inhibition of tumor cell proliferation, CellTiter-Glo, SU-DHL6; conditions: compound concentration 50 μM, 72 hours; for cell survival rate (% of control) at 50 µM: Homo sapiens, SU-DHL-6, read-out: Inhibitory activity against proliferation (cell survival rate) SU-DHL6
Summary of the method: as §1

[3] = system: A549; assay: Inhibition of tumor cell proliferation, CellTiter-Glo, A549; conditions: compound concentration 50 μM, 72 hours; for cell survival rate (% of control) at 50 µM: Homo sapiens, A549, read-out: Inhibitory activity against proliferation (cell survival rate) A549
Summary of the method: as §1

[4] = system: BxPC-3; assay: Inhibition of tumor cell proliferation, CellTiter-Glo, BxPC-3; conditions: compound concentration 50 μM, 72 hours; for cell survival rate (%) at 50 µM: Homo sapiens, BXPC-3, read-out: Inhibitory activity against proliferation (cell survival rate) BxPC-3
Summary of the method: as §1

[5] = system: MDA-MB-453; assay: Inhibition of tumor cell proliferation, CellTiter-Glo, MDA-MB-453; conditions: compound concentration 50 μM, 72 hours; for cell survival rate (%) at 50 µM: Homo sapiens, MDA-MB-453, read-out: Inhibitory activity against proliferation (cell survival rate) MDA-MB-453
Summary of the method: as §1

[6] = system: K562; assay: Inhibition of tumor cell proliferation, CellTiter-Glo, K562; conditions: compound concentration 50 μM, 72 hours; for cell survival rate (%) at 50 µM: Homo sapiens, K562, read-out: Inhibitory activity against proliferation (cell survival rate) K562
Summary of the method: as §1

Compound	cell survival rate (% of control) at 50 µM [1] [%]	cell survival rate (% of control) at 50 µM [2] [%]	cell survival rate (% of control) at 50 µM [3] [%]	cell survival rate (%) at 50 µM [4] [%]	cell survival rate (%) at 50 µM [5] [%]	cell survival rate (%) at 50 µM [6] [%]	Inhibitory activity against proliferation (cell survival rate) RPMI-8226 [1]	Inhibitory activity against proliferation (cell survival rate) SU-DHL6 [2]	Inhibitory activity against proliferation (cell survival rate) A549 [3]	Inhibitory activity against proliferation (cell survival rate) BxPC-3 [4]	Inhibitory activity against proliferation (cell survival rate) MDA-MB-453 [5]	Inhibitory activity against proliferation (cell survival rate) K562 [6]
O=C1CCC(N2Cc3c(N/C=C4\C(=O)CC(c5ccccc5)OC4=O)cccc3C2=O)C(=O)N1 (stereo not drawn) [Compound 112]	30 to 60	60 to 90	60 to 90	30 to 60	30 to 60	30 to 60	–	–	–	–	–	–
O=C1CCC(N2Cc3c(NC=C4C(=O)NC(c5ccccc5)NC4=O)cccc3C2=O)C(=O)N1 (stereo not drawn) [Compound 115]	60 to 90	30 to 60	30 to 60	60 to 90	≤ 30	30 to 60	–	–	–	–	–	–
CC(C)Cn1cccc1C1CC(=O)C(=CNc2cccc3c2CN(C2CCC(=O)NC2=O)C3=O)C(=O)C1 (stereo not drawn) [Compound 116]	–	–	–	–	–	–	++ (30<survival rate (%)≤60)	+ (60≤survival rate (%)<90)	++ (30<survival rate (%)≤60)	++ (30<survival rate (%)≤60)	++ (30<survival rate (%)≤60)	++ (30<survival rate (%)≤60)
O=C1CCC(N2Cc3c(NC=C4C(=O)CC(c5ccc(-c6ccncc6)cc5)CC4=O)cccc3C2=O)C(=O)N1 (stereo not drawn) [Compound 117]	–	–	–	–	–	–	+++ (survival rate (%)≤30)	+ (60≤survival rate (%)<90)	+ (60≤survival rate (%)<90)	+ (60≤survival rate (%)<90)	+ (60≤survival rate (%)<90)	++ (30<survival rate (%)≤60)
O=C1CCC(N2Cc3c(NC=C4C(=O)CC(COc5ccccc5)CC4=O)cccc3C2=O)C(=O)N1 (stereo not drawn) [Compound 118]	–	–	–	–	–	–	+ (60≤survival rate (%)<90)	+ (60≤survival rate (%)<90)	+ (60≤survival rate (%)<90)	+ (60≤survival rate (%)<90)	+ (60≤survival rate (%)<90)	++ (30<survival rate (%)≤60)
O=C1CCC(N2Cc3c(NC=C4C(=O)CN(c5ccccc5)CC4=O)cccc3C2=O)C(=O)N1 (stereo not drawn) [Compound 119]	30 to 60	30 to 60	60 to 90	30 to 60	30 to 60	30 to 60	–	–	–	–	–	–
O=C1CCC(N2Cc3c(NC=C4C(=O)CC(/C=C/c5ccccc5)CC4=O)cccc3C2=O)C(=O)N1 (stereo not drawn) [Compound 120]	–	–	–	–	–	–	++ (30<survival rate (%)≤60)	++ (30<survival rate (%)≤60)	+ (60≤survival rate (%)<90)	+ (60≤survival rate (%)<90)	++ (30<survival rate (%)≤60)	++ (30<survival rate (%)≤60)
O=C1CCC(N2Cc3c(N/C=C4\C(=O)CC(Cc5ccccc5)C4=O)cccc3C2=O)C(=O)N1 (stereo not drawn) [Compound 121]	≤ 30	≤ 30	60 to 90	60 to 90	30 to 60	30 to 60	–	–	–	–	–	–
O=C1CCC(N2Cc3c(N/C=C4\C(=O)CCC(c5ccccc5)CC4=O)cccc3C2=O)C(=O)N1 (stereo not drawn) [Compound 124]	60 to 90	60 to 90	60 to 90	30 to 60	≤ 30	60 to 90	–	–	–	–	–	–
O=C1CCC(N2C(=O)c3cccc(OCCOCCOCCOCCN4CCN(CCNC=C5C(=O)CC(c6ccccc6)CC5=O)CC4)c3C2=O)C(=O)N1 (stereo not drawn) [Compound 125]	–	–	–	–	–	–	+++ (survival rate (%)≤30)	+++ (survival rate (%)≤30)	+ (60≤survival rate (%)<90)	++ (30<survival rate (%)≤60)	+++ (survival rate (%)≤30)	+ (60≤survival rate (%)<90)
O=C1CCC(N2Cc3c(N/C=C4\C(=O)CC(c5ccccc5)NC4=O)cccc3C2=O)C(=O)N1 (stereo not drawn) [Compound 126]	≤ 30	60 to 90	60 to 90	30 to 60	60 to 90	60 to 90	–	–	–	–	–	–
CC1C(=O)/C(=C/Nc2cccc3c2CN(C2CCC(=O)NC2=O)C3=O)C(=O)CC1c1ccccc1 (stereo not drawn) [Compound 127]	60 to 90	≤ 30	60 to 90	60 to 90	60 to 90	60 to 90	–	–	–	–	–	–
O=C1CCC(N2Cc3c(NC=C4C(=O)CC(c5ncnc6sccc56)CC4=O)cccc3C2=O)C(=O)N1 (stereo not drawn) [Compound 130]	–	–	–	–	–	–	++ (30<survival rate (%)≤60)	+++ (survival rate (%)≤30)	+++ (survival rate (%)≤30)	+ (60≤survival rate (%)<90)	+++ (survival rate (%)≤30)	++ (30<survival rate (%)≤60)
O=C1CCC(N2Cc3c(NCCOCCOCCOCCN4CCN(CCNC=C5C(=O)CC(c6ccccc6)CC5=O)CC4)cccc3C2=O)C(=O)N1 (stereo not drawn) [Compound 133]	–	–	–	–	–	–	+ (60≤survival rate (%)<90)	+ (60≤survival rate (%)<90)	+ (60≤survival rate (%)<90)	++ (30<survival rate (%)≤60)	+ (60≤survival rate (%)<90)	++ (30<survival rate (%)≤60)
CCOC(=O)C1CC(=O)C(=CNc2cccc3c2CN(C2CCC(=O)NC2=O)C3=O)C(=O)C1 (stereo not drawn) [Compound 134]	–	–	–	–	–	–	+ (60≤survival rate (%)<90)	+ (60≤survival rate (%)<90)	+ (60≤survival rate (%)<90)	++ (30<survival rate (%)≤60)	+++ (survival rate (%)≤30)	+ (60≤survival rate (%)<90)
O=C1CCC(N2Cc3c(NC=C4C(=O)CC(C(=O)Nc5ccc(Cl)cc5)CC4=O)cccc3C2=O)C(=O)N1 (stereo not drawn) [Compound 135]	–	–	–	–	–	–	++ (30<survival rate (%)≤60)	+++ (survival rate (%)≤30)	+++ (survival rate (%)≤30)	+ (60≤survival rate (%)<90)	+++ (survival rate (%)≤30)	++ (30<survival rate (%)≤60)
O=C1CCC(N2Cc3c(N/C=C4\C(=O)Nc5cc(C(F)(F)F)ccc5C4=O)cccc3C2=O)C(=O)N1 (stereo not drawn) [Compound 137]	≤ 30	≤ 30	60 to 90	30 to 60	60 to 90	30 to 60	–	–	–	–	–	–
O=C1CCC(N2Cc3c(N/C=C4\C(=O)Nc5c(ccc6ccccc56)C4=O)cccc3C2=O)C(=O)N1 (stereo not drawn) [Compound 138]	30 to 60	≤ 30	≤ 30	60 to 90	≤ 30	30 to 60	–	–	–	–	–	–
CC1(C#N)C(=O)/C(=C/Nc2cccc3c2CN(C2CCC(=O)NC2=O)C3=O)C(=O)CC1c1ccccc1 (stereo not drawn) [Compound 139]	≤ 30	≤ 30	60 to 90	60 to 90	≤ 30	≤ 30	–	–	–	–	–	–
